Results from ChEMBL document CHEMBL6087446, “Hypoxia Activated Nitric Oxide Donor Compounds for the Prevention and Treatment of Myocardial Hypoxia-Induced Injury” (J Med Chem, 2025).
The source made the active and inactive calls. The calls are words filed in the database; no cut-off is given here.

How the values were obtained:
[1] = Induction of NO release in rat H9c2 cells at 10 uM by Griess reagent assay relative to control; format: functional
H9c2 [2] = assay: Induction of NO release in rat H9c2 cells under hypoxia condition at 10 uM by Griess reagent assay relative to control; format: functional
Mus musculus [3] = assay: Prevention of myocardial hypoxia injury in isoproterenol-induced male C57 mouse myocardial injury model assessed as decrease in heart weight ratio at 5 mg/kg, ip once daily for 3 consecutive days (reference value: 0.68%); format: functional; parameters: scale not given: the % may be the effect or the level left; conditions: time 3 day
Mus musculus [4] = assay: Prevention of myocardial hypoxia injury in isoproterenol-induced male C57 mouse myocardial injury model assessed as decrease in ACE expression at 5 mg/kg, IG once daily for 3 consecutive days by immunohistochemistry; format: functional, organism-based; conditions: time 3.0 day
Mus musculus [5] = assay: Prevention of myocardial hypoxia injury in isoproterenol-induced male C57 mouse myocardial injury model assessed as prevention of lamellar collagen fiber deposition at 5 mg/kg, IG once daily for 3 consecutive days by Masson staining based analysis; format: functional, organism-based; conditions: time 3.0 day
H9c2 [6] = assay: Prevention of hypoxia-induced apoptosis in rat H9c2 cells assessed as decrease in late apoptosis and necrosis by measuring reduced red fluorescence at 10 uM incubated for 4 hrs by confocal microscopy with Annexin V-FITC and propidium iodide (PI) double staining analysis; format: functional, cell-based
Mus musculus [7] = assay: Prevention of myocardial hypoxia injury in isoproterenol-induced male C57 mouse myocardial injury model assessed as heart weight ratio at 5 mg/kg, ip once daily for 3 consecutive days (reference value: 0.60%); format: functional; conditions: time 3 day
Mus musculus [8] = assay: Prevention of myocardial hypoxia injury in isoproterenol-induced male C57 mouse myocardial injury model assessed as prevention of bundle collagen fiber deposition at 5 mg/kg, IG once daily for 3 consecutive days by Masson staining based analysis; format: functional, organism-based; conditions: time 3.0 day
Mus musculus [9] = assay: Prevention of myocardial hypoxia injury in isoproterenol-induced male C57 mouse myocardial injury model assessed as decrease in myocardial size at 5 mg/kg, ip once daily for 3 consecutive days (reference value: 6.47 mm); format: functional; conditions: time 3 day
Mus musculus [10] = assay: Prevention of myocardial hypoxia injury in isoproterenol-induced male C57 mouse myocardial injury model assessed as decrease in mTORC1 expression at 5 mg/kg, IG once daily for 3 consecutive days by immunohistochemistry; format: functional, organism-based; conditions: time 3.0 day
Mus musculus [11] = assay: Prevention of myocardial hypoxia injury in isoproterenol-induced male C57 mouse myocardial injury model assessed as pathological myocardial change by cell damage at 5 mg/kg, ip once daily for 3 consecutive days by hematoxylin and eosin staining based analysis; format: functional, organism-based; conditions: time 3.0 day
H9c2 [12] = assay: Prevention of hypoxia-induced apoptosis in rat H9c2 cells assessed as decrease in early apoptosis by measuring reduced green fluorescence at 10 uM incubated for 4 hrs by confocal microscopy with Annexin V-FITC and propidium iodide (PI) double staining analysis; format: functional, cell-based
Mus musculus [13] = assay: Prevention of myocardial hypoxia injury in isoproterenol-induced male C57 mouse myocardial injury model assessed as prevention of lamellar collagen fiber deposition at 5 mg/kg, ip once daily for 3 consecutive days by Masson staining based analysis; format: functional, organism-based; conditions: time 3.0 day
H9c2 [14] = assay: Induction of NO release in rat H9c2 cells under hypoxia condition at 10 uM measured for first 30 mins by Griess reagent assay relative to control; format: functional; conditions: 0.5 h
[15] = Toxicity in male C57 mouse assessed as adverse effect at 405 mg/kg, ip measured up to 14 days observation period; format: organism-based; conditions: in vivo, 336 h, time < 14 day
H9c2 [16] = assay: Prevention of hypoxia-induced decrease cell viability of rat H9c2 cells at 10 uM by CCK8 assay; format: functional, cell-based
Mus musculus [17] = assay: Prevention of myocardial hypoxia injury in isoproterenol-induced male C57 mouse myocardial injury model assessed as pathological myocardial change by measuring myocardial cell damage at 5 mg/kg, IG once daily for 3 consecutive days by hematoxylin and eosin staining based analysis; format: functional, organism-based; conditions: time 3.0 day
H9c2 [18] = assay: Prevention of hypoxia-induced decrease in ATP level in rat H9c2 cells at 10 uM […] (Rvb =- 19.6 nmol/mg); format: ADME, cell-based; conditions: h9c2, 10 µM

| SMILES | Activity [1] [%] | Activity (H9c2 [2]) | other results |
| --- | --- | --- | --- |
| CN(N=O)c1ccc(OCc2cc(Cl)ccc2[N+](=O)[O-])cc1 | <5 |  |  |
| CN(N=O)c1ccc(OCc2c(Cl)cccc2[N+](=O)[O-])cc1 | <5 | Active |  |
| CN(N=O)c1ccc(OCc2ccc([N+](=O)[O-])cc2Cl)cc1 | <5 | Active |  |
| Cc1ccc(COc2ccc(N(C)N=O)cc2)c([N+](=O)[O-])c1 | <5 |  |  |
| O=[N+]([O-])O[C@@H]1CO[C@H]2[C@@H]1OC[C@@H]2O [ISOSORBIDE MONONITRATE] |  |  | Activity (Mus musculus [3]): 0.61%; Activity (Mus musculus [4]): Active; Activity (Mus musculus [5]): Active; N6 More Efficacious Than Ismn; Activity (H9c2 [6]): Active; Reduced Red Fluorescence To Certain Extents; Activity (Mus musculus [7]): 0.55%; Activity (Mus musculus [8]): Active; N6 More Efficacious Than Ismn; Activity (Mus musculus [9]): 3.93 mm; Activity (Mus musculus [10]): Active; Activity (Mus musculus [11]): inactive; Activity (H9c2 [12]): Active; Activity (Mus musculus [13]): inactive; Activity (H9c2 [14]): ~30%; Activity [15]: Toxic; Activity (H9c2 [16]): Active; Partially Restores Cell Viability; Activity (Mus musculus [17]): inactive; Activity (H9c2 [18]): 25.3 nmol/mg |
| Cc1ccc([N+](=O)[O-])c(COc2ccc(N(C)N=O)cc2)c1 | <5 |  |  |
| CN(N=O)c1ccc(OCc2ccc(Br)cc2[N+](=O)[O-])cc1 | <5 |  |  |
| Cc1cc(COc2ccc(N(C)N=O)cc2)ccc1[N+](=O)[O-] | <5 |  |  |
| CN(N=O)c1ccc(OCc2ccc([N+](=O)[O-])cc2)cc1 | <5 | Active |  |
| CN(N=O)c1ccc(OCc2ccc(Cl)cc2[N+](=O)[O-])cc1 | <5 |  |  |
| Cc1cc([N+](=O)[O-])ccc1COc1ccc(N(C)N=O)cc1 | <5 | Active |  |
| CN(N=O)c1ccc(OCc2ccccc2[N+](=O)[O-])cc1 | <5 | Active |  |
